Values quoted from earlier work, collected in US20140093564A1, “PHARMACEUTICAL COMPOSITIONS OF COMBINATIONS OF DIPEPTIDYL PEPTIDASE-4 INHIBITORS WITH SIMVASTATIN” (MERCK SHARP & DOHME LTD., priority 2011, published 2014).

Conditions: oral administration, human Type 2 diabetics

Compound	HbA1c levels	fasting glucose	postprandial glucose excursion
N[C@@H](CC(=O)N1CCn2c(nnc2C(F)(F)F)C1)Cc1cc(F)c(F)cc1F [sitagliptin, (2R)-4-oxo-4-[3-(trifluoromethyl)-5,6-dihydro[1,2,4]triazolo[4,3-α]pyrazin-7(8H)-yl]-1-(2,4,5-trifluorophenyl)butan-2-amine]	significantly reduced	reduce	reduce
N#C[C@@H]1CCCN1C(=O)CNC12CC3CC(CC(O)(C3)C1)C2 [vildagliptin, (S)-1-[(3-hydroxy-1-adamantyl)amino]acetyl-2-cyano-pyrrolidine]	significantly reduced	reduce	reduce
